Data on 27 molecules can be found in US20230167073A1 (Teijin Pharma Limited, priority 2020, published 2023).

The experiment has as its target T1, Human TRPC6 (Homo sapiens, UniProt Q9Y210).
T1 construct: expressed in transfected cells
T1 sequence (Q9Y210 1-931): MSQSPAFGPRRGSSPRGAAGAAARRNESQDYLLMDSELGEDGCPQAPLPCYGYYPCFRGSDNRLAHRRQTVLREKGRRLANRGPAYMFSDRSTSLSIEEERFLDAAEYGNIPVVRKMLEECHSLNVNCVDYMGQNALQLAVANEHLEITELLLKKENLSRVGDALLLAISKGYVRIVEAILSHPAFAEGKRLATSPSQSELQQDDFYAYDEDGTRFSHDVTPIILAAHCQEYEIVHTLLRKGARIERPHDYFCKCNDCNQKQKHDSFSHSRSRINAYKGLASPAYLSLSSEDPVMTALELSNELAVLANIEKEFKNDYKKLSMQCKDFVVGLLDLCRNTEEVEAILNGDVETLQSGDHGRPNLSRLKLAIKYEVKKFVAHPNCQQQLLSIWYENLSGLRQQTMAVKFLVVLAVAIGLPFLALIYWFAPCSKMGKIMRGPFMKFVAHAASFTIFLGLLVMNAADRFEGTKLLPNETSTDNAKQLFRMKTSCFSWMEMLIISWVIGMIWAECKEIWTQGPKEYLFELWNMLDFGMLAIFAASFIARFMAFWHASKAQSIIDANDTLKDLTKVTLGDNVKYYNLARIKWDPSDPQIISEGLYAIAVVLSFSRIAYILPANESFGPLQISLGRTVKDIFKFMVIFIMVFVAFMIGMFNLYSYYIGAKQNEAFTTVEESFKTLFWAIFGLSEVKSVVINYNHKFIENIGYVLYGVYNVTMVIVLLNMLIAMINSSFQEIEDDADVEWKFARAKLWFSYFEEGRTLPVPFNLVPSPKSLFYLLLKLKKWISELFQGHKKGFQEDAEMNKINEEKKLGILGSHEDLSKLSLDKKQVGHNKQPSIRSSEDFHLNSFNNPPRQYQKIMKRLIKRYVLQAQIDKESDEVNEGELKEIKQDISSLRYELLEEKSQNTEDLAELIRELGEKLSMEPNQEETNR
Nature of the experiment: Evaluation of TRPC6 channel inhibitory activity (1), FLIPR Calcium 5 Assay Kit, OAG stimulation (Compound Nos. 1-1293). In kind it is cell-based. To be noted: Human TRPC6 stably-expressing cells, OAG 30 μM, FLIPR Calcium 5 Assay Kit; read-out: Inhibitory activity (pIC50 class) (converted). As to the method: Evaluation of TRPC6 Channel Inhibitory Activity (1) (Compound Nos. 1-1293)
In order to investigate TRPC6 channel inhibitory activity of the compounds, evaluation was conducted using FLIPR® Calcium 5 Assay Kit (Molecular Devices) in accordance with the following procedure. Human TRPC6 stably-expressing cells were seeded in a 384-well black clear bottom plate at a density of 5×10^3/well and cultured in an incubator at 37° C. 5% CO2 for 24 hours. Thereafter, 25 μL of a Non Wash Dye Solution, prepared using Component A, 20 mM HEPES-HBSS and 250 mM probenecid, all of which are included in the kit, was added to each well, and the plate was incubated for 30 minutes. A volume of 12.5 μL of a compound solution was added into each well while the fluorescence was measured with FLIPR tetra. After 20 minutes, 12.5 μL of a 1-oleoyl-2-acetyl glycerol (OAG) solution was added at a final concentration of 30 μM. The difference between the minimum fluorescence intensity before the addition of the compound and the maximum fluorescence intensity after the addition of OAG was defined as a signal. An inhibition rate was calculated, assuming the average signal of wells without the compound as the inhibition rate of 0% and the average signal of wells without the compound and OAG as the inhibition rate of 100%. The calculated inhibition rate was analyzed by a four-parameter logistic regression to quantify the inhibition rate in the logarithm of the inverse of the effective concentration which gives a 50% inhibition rate (pIC50). The intensity was expressed by the following symbols (+, ++, +++).

Some results are limits rather than exact numbers.

For `Cn1nc(-c2cccc(F)c2)cc1Oc1cc(C#N)ccc1-c1ncc([C@H](O)CN)cn1` (stereo in doubt) [compound 404, 4-[5-(2-amino-1-hydroxyethyl)pyrimidin-2-yl]-3-[5-(3-fluorophenyl)-2-methylpyrazol-3 yl]oxybenzonitrile], the IC50 is below 10 nM.
The value for `Cn1nc(C2CC2)cc1Oc1cc(C#N)ccc1-c1cccn2c([C@@H](N)CCO)nnc12` (stereo in doubt) [compound 533, 4-[3-(1-amino-3-hydroxypropyl)-[1,2,4]triazolo[4,3-a]pyridin-8-yl]-3-(5-cyclopropyl-2-methylpyrazol-3-yl)oxybenzonitrile] was above 1000 nM.
The value for `Cn1nc(C2CC2)cc1Oc1cc(C#N)ccc1-c1cccn2c(C[C@H](N)C(=O)O)nnc12` (stereo in doubt) [compound 581, 2-amino-3-[8-[4-cyano-2-(5-cyclopropyl-2-methylpyrazol-3-yl)oxyphenyl]-[1,2,4]triazolo[4,3-a]pyridin-3-yl]propanoic acid] was above 1000 nM; that for `N#Cc1ccc(-c2ccc(CN)cc2)c(Nc2cc(-c3ccccc3)ncn2)c1` [Compound 1, 4-[4-(aminomethyl)phenyl]-3-[(6-phenylpyrimidin-4-yl)amino]benzonitrile] was 10 to 1000 nM; that for `Cc1nc(Nc2cc(C#N)ccc2-c2ccc(CCN)cc2)cc(N2CCOCC2)n1` [Compound 2, 4-[4-(2-aminoethyl)phenyl]-3-[(2-methyl-6-morpholin-4-ylpyrimidin-4-yl)amino]benzonitrile] was below 10 nM.
The value for `Cc1nc(Nc2cc(C#N)ccc2-c2ccc3c(c2)COC32CNC2)cc(N2CCOCC2)n1` [Compound 3, 3-[(2-methyl-6-morpholin-4-ylpyrimidin-4-yl)amino]-4-spiro[3H-2-benzofuran-1,3′-azetidin]-5-ylbenzonitrile] was 10 to 1000 nM; that for `Cc1nc(Nc2cc(C#N)ccc2-c2ccc(C(=O)CN)cc2)cc(N2CCOCC2)n1` [Compound 4, 4-[4-(2-Aminoacetyl)phenyl]-3-[(2-methyl-6-morpholin-4-ylpyrimidin-4-yl)amino]benzonitrile] was above 1000 nM; that for `Cc1nc(N2CCOCC2)cc(N(C)c2cc(C#N)ccc2-c2ccc3c(c2)COC32CN(C)C2)n1` [Compound 5, 3-[methyl-(2-methyl-6-morpholin-4-ylpyrimidin-4-yl)amino]-4-(1′-methylspiro[3H-2-benzofuran-1,3′-azetidin]-5-yl)benzonitrile] was above 1000 nM.
`CN(c1cc(C#N)ccc1-c1ncc(CCN)cn1)c1cc(-c2ccccc2)nn1C` [Compound 6, 4-[5-(2-Aminoethyl)pyrimidin-2-yl]-3-[methyl-(2-methyl-5-phenylpyrazol-3-yl)amino]benzonitrile]: the IC50 was below 10 nM.
To `Cc1nc(Oc2cc(C#N)ccc2-c2ccc(CCN)cc2)cc(N2CCOCC2)n1` [Compound 7, 4-[4-(2-Aminoethyl)phenyl]-3-(2-methyl-6-morpholin-4-ylpyrimidin-4-yl)oxybenzonitrile] belongs below 10 nM; to `Cc1nc(Oc2cc(C#N)ccc2-c2ccc(C(=O)CN)cc2)cc(N2CCOCC2)n1` [Compound 8, 4-[4-(2-aminoacetyl)phenyl]-3-(2-methyl-6-morpholin-4-ylpyrimidin-4-yl)oxybenzonitrile], above 1000 nM; to `Cc1nc(Oc2cc(C#N)ccc2-c2ccc(C(O)CN)cc2)cc(N2CCOCC2)n1` (stereo not drawn) [Compound 9, 4-[4-(2-amino-1-hydroxyethyl)phenyl]-3-(2-methyl-6-morpholin-4-ylpyrimidin-4-yl)oxybenzonitrile], below 10 nM.
To `Cc1nc(Oc2cc(C#N)ccc2-c2ccc(N3CCN(C)CC3)cc2)cc(N2CCOCC2)n1` [Compound 10, 3-(2-methyl-6-morpholin-4-ylpyrimidin-4-yl)oxy-4-[4-(4-methylpiperazin-1-yl)phenyl]benzonitrile] belongs above 1000 nM; to `COC(CN)c1ccc(-c2ccc(C#N)cc2Oc2cc(N3CCOCC3)nc(C)n2)cc1` (stereo not drawn) [Compound 11, 4-[4-(2-Amino-1-methoxyethyl)phenyl]-3-(2-methyl-6-morpholin-4-ylpyrimidin-4-yl)oxybenzonitrile], below 10 nM.
Turning to `Cc1nc(Oc2cc(C#N)ccc2-c2ccc(N3CCNCC3)cc2)cc(N2CCOCC2)n1` [Compound 12, 3-(2-methyl-6-morpholin-4-ylpyrimidin-4-yl)oxy-4-(4-piperazin-1-ylphenyl)benzonitrile], the IC50 is above 1000 nM.
Take `Cc1nc(Oc2cc(C#N)ccc2-c2ccc(C(CN)Oc3ccccc3)cc2)cc(N2CCOCC2)n1` (stereo not drawn) [Compound 13, 4-[4-(2-Amino-1-phenoxyethyl)phenyl]-3-(2-methyl-6-morpholin-4-ylpyrimidin-4-yl)oxybenzonitrile]: the IC50 was 10 to 1000 nM.
For `Cc1nc(Oc2cc(C#N)ccc2-c2cnc(N)nc2)cc(N2CCOCC2)n1` [Compound 14, 4-(2-aminopyrimidin-5-yl)-3-(2-methyl-6-morpholin-4-ylpyrimidin-4-yl)oxybenzonitrile], the IC50 is above 1000 nM.
With `CCN(CC)c1cc(Oc2cc(C#N)ccc2-c2ccc(CCN)cc2)nc(C)n1` [Compound 15, 4-[4-(2-aminoethyl)phenyl]-3-[6-(diethylamino)-2-methylpyrimidin-4-yl]oxybenzonitrile], the IC50 is 10 to 1000 nM.
The value for `CCCN(CCC)c1cc(Oc2cc(C#N)ccc2-c2ccc(CCN)cc2)nc(C)n1` [Compound 16, 4-[4-(2-aminoethyl)phenyl]-3-[6-(dipropylamino)-2-methylpyrimidin-4-yl]oxybenzonitrile] was 10 to 1000 nM.
To `Cc1nc(Oc2cc(C#N)ccc2-c2ccc(CCN)cc2)cc(N2CCCCC2)n1` [Compound 17, 4-[4-(2-Aminoethyl)phenyl]-3-(2-methyl-6-piperidin-1-ylpyrimidin-4-yl)oxybenzonitrile] belongs below 10 nM.
To `Cc1nc(Oc2cc(C#N)ccc2-c2ccc(CCN)cc2)cc(N2CCC(F)(F)CC2)n1` [Compound 18, 4-[4-(2-aminoethyl)phenyl]-3-[6-(4,4-difluoropiperidin-1-yl)-2-methylpyrimidin-4-yl]oxybenzonitrile] belongs 10 to 1000 nM; to `Cc1nc(Oc2cc(C#N)ccc2-c2ccc(CCN)cc2)cc(N2CCCC(F)(F)C2)n1` [Compound 19, 4-[4-(2-aminoethyl)phenyl]-3-[6-(3,3-difluoropiperidin-1-yl)-2-methylpyrimidin-4-yl]oxybenzonitrile], 10 to 1000 nM.
Consider `Cc1nc(Oc2cc(C#N)ccc2-c2ccc(CCN)cc2)cc(-c2ccnn2C)n1` [Compound 20, 4-[4-(2-aminoethyl)phenyl]-3-[2-methyl-6-(2-methylpyrazol-3-yl)pyrimidin-4-yl]oxybenzonitrile], for which the IC50 is 10 to 1000 nM.
For `Cc1nc(Oc2cc(C#N)ccc2-c2ccc(CCN)cc2)cc(-c2ccccc2C#N)n1` [Compound 21, 4-[4-(2-Aminoethyl)phenyl]-3-[6-(2-cyanophenyl)-2-methylpyrimidin-4-yl]oxybenzonitrile], the IC50 is below 10 nM.
For `Cc1nc(Oc2cc(C#N)ccc2-c2ccc(CCN)cc2)cc(-c2ccccc2O)n1` [Compound 22, 4-[4-(2-aminoethyl)phenyl]-3-[6-(2-hydroxyphenyl)-2-methylpyrimidin-4-yl]oxybenzonitrile], the IC50 was 10 to 1000 nM.
The value for `Cc1nc(Oc2cc(C#N)ccc2-c2ccc(CCN)cc2)cc(-c2ccccc2C(F)(F)F)n1` [Compound 23, 4-[4-(2-aminoethyl)phenyl]-3-[2-methyl-6-[2-(trifluoromethyl)phenyl]pyrimidin-4-yl]oxybenzonitrile] was 10 to 1000 nM; that for `Cc1nc(Oc2cc(C#N)ccc2-c2ccc(CCN)cc2)cc(N2CC(F)(F)C2)n1` [Compound 24, 4-[4-(2-aminoethyl)phenyl]-3-[6-(3,3-difluoroazetidin-1-yl)-2-methylpyrimidin-4-yl]oxybenzonitrile] was 10 to 1000 nM.
